Patent US10799505B2, “Crystalline form of (S)-N-(5-((R)-2-(2,5-difluorophenyl)-pyrrolidin-1-yl)-pyrazolo[1,5-A]pyrimidin-3-yl)-3-hydroxypyrrolidine-1-carboxamide hydrogen sulfate” (Array BioPharma, Inc., priority 2014, dated 2020)
Counter-ions that a name gives are not always drawn.

How the values were obtained:
[1] = Dynamic vapor sorption (DVS-1 system); format: physicochemical
Procedure: For the DVS measurement a sample of crystalline form (I-HS) was cycled through changing humidity conditions to determine its hygroscopicity. The sample was analyzed using a Surface Measurement System DVS-1 Dynamic Vapor Sorption System. […] Data was collected in 1 minute intervals. Nitrogen was used as the carrier gas. […] After completion of the sorption cycle, the sample was dried using the same procedure, but all the way down to 0% RH and finally taken back to the starting point of 20% RH. The weight change during the sorption/desorption cycles were plotted, allowing for the hygroscopic nature of the sample to be determined.

[2] = test system: TEL-TRKC oncoprotein, pAKT, and pERK1/2; test: Immunoblot of phosphorylation in MO-91 cells; format: cell-based, human; settings: low doses, 2 hours
Text: (§1) Briefly, cells were lysed in RIPA buffer with Halt Protease and Phosphatase Inhibitor Cocktail (Thermo Scientific) and diluted in loading buffer (LI-COR Biosciences). The membranes were scanned and analyzed using the Odyssey Imaging System and software (LI-COR). The following antibodies were used from Cell Signaling: pTRK Y490 (rabbit polyclonal, #9141), pERK1/2 XP T202/Y204 (#9101), total ERK1/2, pAKT S473 (rabbit mAb, #4060), and total AKT mouse clone D3A7 (#2920). TRK (C-14) rabbit polyclonal antibody was purchased from Santa Cruz Biotechnology. GAPDH (MAB374) and pTYR (4G10) are from Millipore.

[3] = Stability on aluminum slide at 40° Celsius/75% RH; format: physicochemical; settings: I-HS 10 days; HCl after 1 hour; HBr after 2 weeks; mesylate overnight
TRKA-SHC1 complexes = test: TRK-SHC1 proximity ligation assay in CUTO-3 cells; format: cell-based, human; settings: 100 nM, 2 hours, vs DMSO
Procedure: Cells were seeded onto glass coverslips (in a 48 well plate) or chamber slides at 25-75 k cells/well. Cells were treated with the indicated doses and times then fixed for 15 minutes by shaking at room temperature in 4% paraformaldehyde. The cells were rinsed twice in PBS, and then the Duolink® in situ PLA® kit from SigmaAldrich in mouse/rabbit (Red) was used according to the manufacturer's protocol (catalog # DUO92101). The antibody concentrations were optimized using immunofluorescence prior to PLA experiments. The FFPE tissue PLAs from mice or patients were prepared as described in histology. Additionally, samples were treated with 300 mM glycine for 15 minutes prior to the blocking step, otherwise the assay was performed according to the manufacturer's protocol. The cells were mounted using Prolong® gold anti-fade reagent (with DAPI) and cured overnight prior to imaging. […] The following antibodies were used: TRK (C17F1) and ALK (D5F3) from Cell Signaling, SHC1 from Novus, and Grb2 (610111) from BD.

[4] = test system: CUTO-3F lung adenocarcinoma cells harboring MPRIP-NTRK1 fusion; test: Cell proliferation assay (Cell Titer 96 MTS), CUTO-3F; format: cell-based; settings: Homo sapiens, 72 h, read-out: IC50, cell proliferation
Procedure: (§3) The KM12 cell line is a colorectal cancer cell line harboring the TPM3-NTRK1 fusion (Vaishnavi et al., Nature Med. 19:1469-1472, 2013). The MO-91 cell line is derived from an acute myeloid leukemia patient harboring the ETV6-NTRK3 fusion (Taipale et al., Nature Biotech. 31:630-637, 2013).
(§4) All proliferation assays were performed in media supplemented with 5% FBS as previously described using Cell Titer 96 MTS (Promega) (Bouhana et al., EORTC-NCI-AACR 26th Symposium on Molecular Targets and Cancer Therapeutics, Barcelona, Spain 2014). Cells were seeded 500-2000 cells/well and treated for 72 hours at the drug concentrations described on each graph. Each assay was performed in triplicate in at least 3 independent biological replicates. Data were plotted and IC50 values calculated using GraphPad software.

[5] = test system: solid tumors with NTRK gene fusions; test: Phase 1 study, tumor response (RECIST 1.1) in patients with NTRK fusions; format: in vivo, human
Procedure: Three of the 23 patients harbored NTRK-fusions and were treated at either 100 or 150 mg BID.

[6] = Phase 1 dose escalation study, safety; settings: for dose limiting toxicity: one patient
Procedure: In patients with measurable disease, efficacy is assessed per RECIST 1.1 criteria.
Response is measured by RECIST Criteria, version 1.1. Serum is collected for pharmacokinetic analysis on Cycle 1 Day 1 and Day 8. Safety information is collected on all patients and the definition of dose-limiting toxicity applies to adverse events regardless of relationship to investigational product.

[7] = test system: TPM3-TRKA, pAKT, and pERK1/2; test: Immunoblot of phosphorylation in KM12 cells; format: cell-based, human; settings: low doses, 2 hours
Text: as §1

[8] = test system: HCC78 cells expressing SLC34A2-ROS1 fusion protein; settings: HCC78 cell line
Procedure: as §4

[9] = test system: KM12 colorectal cancer cells harboring TPM3-NTRK1 fusion; test: Cell proliferation assay (Cell Titer 96 MTS), KM12; format: cell-based; settings: Homo sapiens, KM12, 72 h, read-out: IC50, cell proliferation
Procedure: as §3, §4

[10] = test system: xenograph (human) tumor derived from KM12 cell line; test: Xenograft tumor growth in mice, KM12; format: in vivo; settings: 60 or 200 mg/kg daily oral
Text: (§2) The three different cancer cell lines, the CUTO-3F cell line, the KM12 cell line, and the MO-91 cell line, each express a different Trk gene fusion. […] Following implantation of one of these three different xenograph (human) tumors in mice, the change in the volume of each tumor was monitored.

[11] = Phase 1 dose escalation study, pharmacokinetics; format: in vivo, human; settings: oral, patients
[12] = Accelerated stability, open vials in LDPE bag, 40° C./75% RH, five weeks; format: physicochemical
Procedure: Upon removal from the chamber, the samples were physically characterized by appearance, KF, TGA, DSC, XRD and PLM. The samples were also analyzed by HPLC for chromatographic purity, chiral integrity and potency. Where applicable, the data presented in the stability portion also includes the original T=0 data for comparison purposes. The data can be seen in Tables 25-29 and FIGS. 40-44.

[13] = test system: MPRIP-TRKA oncoprotein and ERK1/2; test: Immunoblot of phosphorylation in CUTO-3F cells; format: cell-based, human; settings: low doses, 2 hours
Text: as §1

[14] = test system: xenograph (human) tumor derived from CUTO-3F cell line; test: Xenograft tumor growth in mice, CUTO-3F; format: in vivo; settings: CUTO-3F xenograft, 60 or 200 mg/kg daily oral
Text: as §2

[15] = test system: MO-91 acute myeloid leukemia cells harboring ETV6-NTRK3 fusion; test: Cell proliferation assay (Cell Titer 96 MTS), MO-91; format: cell-based; settings: Homo sapiens, MO-91, 72 h, read-out: IC50, cell proliferation
Procedure: as §3, §4

TRKA/B/C = test: Target inhibition judged from unbound drug levels in Phase 1 study; format: in vivo, human; settings: all dose levels
[16] = test system: xenograph (human) tumor derived from MO-91 cell line; test: Xenograft tumor growth in mice, MO-91; format: in vivo; settings: MO-91 xenograft, 60 or 200 mg/kg daily oral
Text: as §2

[17] = test system: undifferentiated sarcoma with LMNA-NTRK1 fusion; test: Phase 1 trial, patient with undifferentiated sarcoma (case report); format: in vivo, human; settings: one patient
Text: The patient started cycle 1 day 1 three days later. The patient was seen weekly for pharmacokinetic and safety analysis.

[18] = Dynamic vapor sorption / humidity exposure (IGAsorp, 25° C.); format: physicochemical; settings: for hygroscopicity: DVS, hydrogen sulfate
Procedure: • 1. The hygroscopicity was studied at 25° C. using an IGAsorp analyzer. • 2. About 15 mg of sample was placed in a tared mesh sample holder at an initial ambient room humidity setting of ˜35%. • 3. A total wet/dry nitrogen flow rate of 250 cc/min is used throughout the study. • 4. […] The maximum time allowed at any one humidity set point was 120 min. The sample was maintained under dry N2 after the cycle was completed. Percent weight gain was calculated based on the dry weight basis.

[19] = 23 patients, 50 mg QD-150 mg BID

O=C(Nc1cnn2ccc(N3CCC[C@@H]3c3cc(F)ccc3F)nc12)N1CC[C@H](O)C1 [crystalline form (I-HS), (S)—N-(5-((R)-2-(2,5-difluorophenyl)-pyrrolidin-1-yl)-pyrazolo[1,5-a]pyrimidin-3-yl)-3-hydroxypyrrolidine-1-carboxamide hydrogen sulfate]
change in form during DVS (post-DVS XRPD) [1]: no change | hygroscopicity ([1]; DVS isotherm, FIG. 5): non-hygroscopic | DVS (outcome) ([1]; HCl: at 50-60% RH): RH No change | DVS weight gain ([1]; at 80% RH): ~1% gain at 80% | DVS weight gain ([1]; at 95% RH): A 2% gain at 95% | increase in mass during sorption cycle ([1]; between 0% and 90% RH): about 1.7% | phosphorylation of TEL-TRKC, pAKT, pERK1/2 [2]: inhibition in the phosphorylation | Stability at 40° Celsius/75% RH (aluminum slide) [3]: No form change | TRKA-SHC1 complexes (PLA signal) (TRKA-SHC1 complexes): disruption of TRKA-SHC1 complexes | IC50 [4]: < 100 nM | response (RECIST 1.1) in three NTRK-fusion patients ([5]; 100 or 150 mg BID): partial response | tumor decrease ([5]; c-kit-negative GIST, ETV6-NTRK3 fusion, 2 cycles+): 30% | tumor decrease ([5]; mammary analogue secretory carcinoma, ETV6-NTRK3 fusion, 2 cycles+): 64% | tumor decrease ([5]; undifferentiated sarcoma, LMNA-NTRK1 fusion, 7 cycles+): 59% | Grade 1 and 2 anemia, frequency ([6]; 23 patients): 22% | Grade 1 and 2 dizziness, frequency ([6]; 23 patients): 26% | Grade 1 and 2 fatigue, frequency ([6]; 23 patients): 35% | MTD [6, 19]: has not been reached | tolerability [6, 19]: well tolerated | dose limiting toxicity ([6]; Dose Level 100 mg BID): delirium, grade 3 unrelated | dose limiting toxicity ([6]; Dose Level 150 mg BID): elevated AST, grade 3 | adverse events attributed to drug ([6]; sarcoma patient, after four months of dosing): did not have any adverse events | drug-related adverse events ([6]; sarcoma patient, first 4-week period): No drug-related adverse events were noted | phosphorylation of TPM3-TRKA, pAKT, pERK1/2 [7]: inhibition of the phorphorylation | inhibition of cellular proliferation [8]: did not inhibit | IC50 [9]: < 10 nM | tumor growth (change in volume) [10]: effectively halt the growth, or decrease the rate of growth | exposure versus dose [11]: increased in approximate proportion with dose | time to maximum plasma concentrations following dosing [11]: 30 to 60 min | Appearance ([12]; 40° C./75% RH, 5 wks): Orange Powder | Assay (HPLC) ([12]; 40° C./75% RH, 5 wks): 79.6% | Chiral Potency (HPLC) ([12]; 40° C./75% RH, 5 wks): 99.6% | KF (water content) ([12]; 40° C./75% RH, 5 wks): 0.21 w/w % | Peak Area Percent, RRT 0.793 ([12]; 40° C./75% RH, 5 wks): 0.07 | Peak Area Percent, RRT 0.863 ([12]; 40° C./75% RH, 5 wks): 0.00 | Peak Area Percent, RRT 0.981 ([12]; 40° C./75% RH, 5 wks): 0.00 | Peak Area Percent, RRT 1.000 ([12]; 40° C./75% RH, 5 wks): 99.93 | Peak Area Percent, RRT 1.535 ([12]; 40° C./75% RH, 5 wks): 0.00 | Total Impurities (HPLC) ([12]; 40° C./75% RH, 5 wks): 0.07% | change of API chemical purity ([12]; 40° C./75% RH, five weeks): did not change significantly | Appearance ([12]; time point 0 wks): Orange Powder | Assay (HPLC) ([12]; time point 0 wks): 79.4% | Chiral Potency (HPLC) ([12]; time point 0 wks): 99.6% | KF (water content) ([12]; time point 0 wks): 0.28 w/w % | Peak Area Percent, RRT 0.793 ([12]; time point 0 wks): 0.07 | Peak Area Percent, RRT 0.863 ([12]; time point 0 wks): 0.00 | Peak Area Percent, RRT 0.981 ([12]; time point 0 wks): 0.00 | Peak Area Percent, RRT 1.000 ([12]; time point 0 wks): 99.86 | Peak Area Percent, RRT 1.535 ([12]; time point 0 wks): 0.07 | Total Impurities (HPLC) ([12]; time point 0 wks): 0.14% | phosphorylation of MPRIP-TRKA and ERK1/2 [13]: inhibition of phosphorylation | tumor growth (change in volume) [14]: effectively halt the growth, or decrease the rate of growth | IC50 [15]: < 10 nM | inhibition of TRKA/B/C at peak concentrations (TRKA/B/C): approximately 98% | tumor growth (change in volume) [16]: effectively halt the growth, or decrease the rate of growth | response by RECIST 1.1 ([17]; 100 mg twice daily, CT before cycle 2 and cycle 3): partial response | oxygen saturation on room air ([17]; on treatment, baseline 90% with 5 L supplemental oxygen): 97% | CA125 tumor marker levels ([17]; over cycle 1): normalized | hygroscopicity [18]: non-hygroscopic | hygroscopicity ([18]; listed as Crystalline form (I-HS)): not hygroscopic | mass gained in DVS ([18]; at 80% RH): 1%
